Experimental data published in patent publication US8592367B2, “Nodule specific medicago peptides having antimicrobial activity and pharmaceutical compositions containing the same” (priority 2009, dated 2013).
Entries after “also recorded” stand apart in the source; their conditions may differ. Read-outs that look alike come from different tables or passages of the source.

Tests used:
Candida albicans = assay: Antifungal activity in 96-well microtiter plates; type: cell-based; parameters: key: +++: high sensitivity, no hyphal growth; ++: medium sensitivity; +: low sensitivity; −: no effect; conditions: 24 h
Xanthomonas 2880 [1] = assay: CFU determination, broad spectrum activity; type: cell-based; conditions: 50 μg/ml, Xanthomonas 2880, untreated 10^7
[2] = tested on: Pseudomonas syringae pv tomato DC3000; assay: CFU determination, broad spectrum activity; type: cell-based; conditions: 50 μg/ml, Pseudomonas syringae pv tomato DC3000, untreated 10^7
Aspergillus flavus = assay: Antifungal activity in 96-well microtiter plates; type: cell-based; parameters: key: +++: high sensitivity, no hyphal growth; ++: medium sensitivity; +: low sensitivity; −: no effect; conditions: 24 h
Fusarium graminearum [3] = type: cell-based; parameters: key: +++: high sensitivity, no hyphal growth; ++: medium sensitivity; +: low sensitivity; −: no effect; conditions: 24 h
[4] = tested on: Rhizopus stolonifer var. stolonifer; assay: Antifungal activity in 96-well microtiter plates; type: cell-based; parameters: key: +++: high sensitivity, no hyphal growth; ++: medium sensitivity; +: low sensitivity; −: no effect; conditions: 24 h
Bacillus subtilis [5] = assay: PI staining, broad spectrum activity; type: cell-based; conditions: 50 μg/ml
Clavibacter michigense [6] = assay: PI staining, broad spectrum activity; type: cell-based; conditions: 50 μg/ml
[7] = tested on: Curtobacterium, flaccumfaciens; assay: PI staining, broad spectrum activity; type: cell-based; conditions: 50 μg/ml
[8] = tested on: Curtobacterium, flaccumfaciens; assay: CFU determination, broad spectrum activity; type: cell-based; conditions: 50 μg/ml, untreated 10^9
[9] = tested on: Sinorhizobium meliloti AK631; assay: CFU determination of Sinorhizobium meliloti; conditions: for CFU % / CFU (colony/ml): 1 hr; for CFU determination (colony formation): 3 hours, 2-3×10^6 bacteria, FIG. 2B; for CFU: Sinorhizobium meliloti (AK631), untreated 10^7; for eradication of the bacteria: from the low dose of 20 μg/ml
Candida parapsilosis = assay: Antifungal activity in 96-well microtiter plates; type: cell-based; parameters: key: +++: high sensitivity, no hyphal growth; ++: medium sensitivity; +: low sensitivity; −: no effect; conditions: 24 h
[10] = tested on: Sinorhizobium meliloti AK631; assay: PI staining of Sinorhizobium meliloti; conditions: 50 μg/ml; for PI staining (PI uptake): FIG. 2A; for PI: Sinorhizobium meliloti (AK631)
Xanthomonas 2880 [11] = assay: PI staining, broad spectrum activity; type: cell-based; conditions: 50 μg/ml
[12] = tested on: Pseudomonas syringae pv tomato DC3000; assay: PI staining, broad spectrum activity; type: cell-based; conditions: 50 μg/ml
Aspergillus niger = assay: Antifungal activity in 96-well microtiter plates; type: cell-based; parameters: key: +++: high sensitivity, no hyphal growth; ++: medium sensitivity; +: low sensitivity; −: no effect; conditions: 24 h
Bacillus subtilis [13] = assay: CFU determination, broad spectrum activity; type: cell-based; conditions: 50 μg/ml, untreated 10^6
Clavibacter michigense [14] = assay: CFU determination, broad spectrum activity; type: cell-based; conditions: 50 μg/ml, untreated 10^9
Staphylococcus aureus [15] = assay: CFU determination, broad spectrum activity; type: cell-based; conditions: 50 μg/ml, untreated 10^6
Candida crusei = assay: Antifungal activity in 96-well microtiter plates; type: cell-based; parameters: key: +++: high sensitivity, no hyphal growth; ++: medium sensitivity; +: low sensitivity; −: no effect; conditions: 24 h
Staphylococcus aureus [16] = assay: PI staining, broad spectrum activity; type: cell-based; conditions: 50 μg/ml
Pseudomonas aeruginosa [17] = assay: PI staining, broad spectrum activity; type: cell-based; conditions: 50 μg/ml
Fusarium graminearum [18] = type: cell-based; conditions: 50 μg/ml, same at 24 h and 48 h, FIGS. 11C and 11F
Pseudomonas aeruginosa [19] = assay: CFU determination, broad spectrum activity; type: cell-based; conditions: 50 μg/ml

## NCR035: cationic NCR peptide (SFLGTFISSCKRDKDCPKLYGANFRCRKGTCVPPI; Peptide derived from Medicago truncatula)
Candida albicans; 25 μg/ml
  Fungal (hyphal) growth, sensitivity: +
Candida albicans; 50 μg/ml
  Fungal (hyphal) growth, sensitivity: ++
Candida albicans; 100 μg/ml
  Fungal (hyphal) growth, sensitivity: ++
Xanthomonas 2880 [1]
  CFU: CFU: 10^2
[2]
  CFU: CFU: 10^7
Aspergillus flavus; 25 μg/ml
  Fungal (hyphal) growth, sensitivity: −
Aspergillus flavus; 50 μg/ml
  Fungal (hyphal) growth, sensitivity: +
Aspergillus flavus; 100 μg/ml
  Fungal (hyphal) growth, sensitivity: ++
Fusarium graminearum [3]; 25 μg/ml
  Fungal (hyphal) growth, sensitivity: −
Fusarium graminearum [3]; 50 μg/ml
  Fungal (hyphal) growth, sensitivity: +
Fusarium graminearum [3]; 100 μg/ml
  Fungal (hyphal) growth, sensitivity: ++
[4]; 25 μg/ml
  Fungal (hyphal) growth, sensitivity: −
[4]; 50 μg/ml
  Fungal (hyphal) growth, sensitivity: +
[4]; 100 μg/ml
  Fungal (hyphal) growth, sensitivity: ++
Bacillus subtilis [5]
  PI: PI: 100%
Clavibacter michigense [6]
  PI: PI: 110%
[7]
  PI: PI: 78%
[8]
  CFU: CFU: 10^5
[9]; 20 μg/ml
  CFU %: 0%
  CFU (colony/ml): 21000 colony/ml
[9]; 50 μg/ml
  CFU %: 0%
  CFU (colony/ml): 0 colony/ml
  CFU determination (colony formation): none formed colony
  CFU: CFU: 0
[9]
  eradication of the bacteria: able to eradicate the bacteria in less than an hour
Candida parapsilosis; 25 μg/ml
  Fungal (hyphal) growth, sensitivity: +
Candida parapsilosis; 50 μg/ml
  Fungal (hyphal) growth, sensitivity: ++
Candida parapsilosis; 100 μg/ml
  Fungal (hyphal) growth, sensitivity: ++
[10]; listed as NCR35
  PI staining (PI uptake): provoked PI uptake; also recorded: comparable to heat killed bacteria or bacteria treated with polymyxin B
[10]
  PI: PI: 90%
Xanthomonas 2880 [11]
  PI: PI: 100%
[12]
  PI: PI: 100%
Aspergillus niger; 25 μg/ml
  Fungal (hyphal) growth, sensitivity: −
Aspergillus niger; 50 μg/ml
  Fungal (hyphal) growth, sensitivity: −
Aspergillus niger; 100 μg/ml
  Fungal (hyphal) growth, sensitivity: +
Bacillus subtilis [13]
  CFU: CFU: 10^3
Clavibacter michigense [14]
  CFU: CFU: 10^4
Staphylococcus aureus [15]
  CFU: CFU: 10^6
Candida crusei; 25 μg/ml
  Fungal (hyphal) growth, sensitivity: +
Candida crusei; 50 μg/ml
  Fungal (hyphal) growth, sensitivity: ++
Candida crusei; 100 μg/ml
  Fungal (hyphal) growth, sensitivity: ++
Staphylococcus aureus [16]
  PI: PI: 100%

## NCR247: cationic NCR peptide (RNGCIVDPRCPYQQCRRPLYCRRR; Peptide derived from Medicago truncatula)
Candida albicans; 25 μg/ml
  Fungal (hyphal) growth, sensitivity: +++
Candida albicans; 50 μg/ml
  Fungal (hyphal) growth, sensitivity: +++
Candida albicans; 100 μg/ml
  Fungal (hyphal) growth, sensitivity: +++
Xanthomonas 2880 [1]
  CFU: CFU: 0
[2]
  CFU: CFU: 0
Aspergillus flavus; 25 μg/ml
  Fungal (hyphal) growth, sensitivity: +++
Aspergillus flavus; 50 μg/ml
  Fungal (hyphal) growth, sensitivity: +++
Aspergillus flavus; 100 μg/ml
  Fungal (hyphal) growth, sensitivity: +++
Fusarium graminearum [3]; 25 μg/ml
  Fungal (hyphal) growth, sensitivity: ++
Fusarium graminearum [3]; 50 μg/ml
  Fungal (hyphal) growth, sensitivity: ++
Fusarium graminearum [3]; 100 μg/ml
  Fungal (hyphal) growth, sensitivity: ++
[4]; 25 μg/ml
  Fungal (hyphal) growth, sensitivity: +++
[4]; 50 μg/ml
  Fungal (hyphal) growth, sensitivity: +++
[4]; 100 μg/ml
  Fungal (hyphal) growth, sensitivity: +++
Bacillus subtilis [5]
  PI: PI: 18%
Clavibacter michigense [6]
  PI: PI: 50%
[7]
  PI: PI: 27%
[8]
  CFU: CFU: 0
[9]; 20 μg/ml
  CFU %: 0%
  CFU (colony/ml): 0 colony/ml
[9]; 50 μg/ml
  CFU %: 0%
  CFU (colony/ml): 0 colony/ml
  CFU determination (colony formation): none formed colony
  CFU: CFU: 0
[9]
  eradication of the bacteria: able to eradicate the bacteria in less than an hour
Candida parapsilosis; 25 μg/ml
  Fungal (hyphal) growth, sensitivity: +++
Candida parapsilosis; 50 μg/ml
  Fungal (hyphal) growth, sensitivity: +++
Candida parapsilosis; 100 μg/ml
  Fungal (hyphal) growth, sensitivity: +++
[10]
  PI: PI: 70%
Xanthomonas 2880 [11]
  PI: PI: 48%
[12]
  PI: PI: 60%
Pseudomonas aeruginosa [17]
  PI: PI: 15%
Aspergillus niger; 25 μg/ml
  Fungal (hyphal) growth, sensitivity: +++
Aspergillus niger; 50 μg/ml
  Fungal (hyphal) growth, sensitivity: +++
Aspergillus niger; 100 μg/ml
  Fungal (hyphal) growth, sensitivity: +++
Fusarium graminearum [18]
  spores and hyphae development: inhibits the spores and hyphae development
Bacillus subtilis [13]
  CFU: CFU: 10^6
Clavibacter michigense [14]
  CFU: CFU: 0
Staphylococcus aureus [15]
  CFU: CFU: 10^5
Candida crusei; 25 μg/ml
  Fungal (hyphal) growth, sensitivity: +++
Candida crusei; 50 μg/ml
  Fungal (hyphal) growth, sensitivity: +++
Candida crusei; 100 μg/ml
  Fungal (hyphal) growth, sensitivity: +++
Staphylococcus aureus [16]
  PI: PI: 30%
Pseudomonas aeruginosa [19]; strain resistant to conventional antibiotics
  CFU (FIG. 10): completely eradicated

## NCR224: anionic NCR peptide (KDLPFNICEKDEDCLEFCAHDKVAKCMLNICFCF; Peptide derived from Medicago truncatula)
[9]; 20 μg/ml
  CFU %: 130%
  CFU (colony/ml): 52900000 colony/ml
[9]; 50 μg/ml
  CFU %: 48%
  CFU (colony/ml): 19600000 colony/ml
  CFU determination (colony formation): reduced growth capacity

## NCR057: cationic NCR peptide (RPVSCKDHYDCRRKVKIVGCIFPQEKPMCINSMCTCIREIVP; Peptide derived from Medicago truncatula)
[2]
  CFU: CFU: 10^6
Clavibacter michigense [6]
  PI: PI: 70%
[7]
  PI: PI: 60%
[8]
  CFU: CFU: 0
[9]; 20 μg/ml
  CFU %: 148%
  CFU (colony/ml): 9800000 colony/ml
[9]; 50 μg/ml
  CFU %: 68%
  CFU (colony/ml): 4500000 colony/ml
  CFU determination (colony formation): reduced growth capacity
  CFU: CFU: 10^6
[9]
  eradication of the bacteria: able to eradicate the bacteria in less than an hour
[10]
  PI: PI: 35%
Xanthomonas 2880 [11]
  PI: PI: 65%
[12]
  PI: PI: 50%
Bacillus subtilis [13]
  CFU: CFU: 10^6
Staphylococcus aureus [15]
  CFU: CFU: 10^6
Staphylococcus aureus [16]
  PI: PI: 47%

## NCR055: cationic NCR peptide (VNDCIRIHCKDDFDCIENRLQVGCRLQREKPRCVNLVCRCLRR; Peptide derived from Medicago truncatula)
Candida albicans; 50 μg/ml
  Fungal (hyphal) growth, sensitivity: +++
Candida albicans; 100 μg/ml
  Fungal (hyphal) growth, sensitivity: +++
Xanthomonas 2880 [1]
  CFU: CFU: 10^4
[2]
  CFU: CFU: 0
Aspergillus flavus; 50 μg/ml
  Fungal (hyphal) growth, sensitivity: +
Aspergillus flavus; 100 μg/ml
  Fungal (hyphal) growth, sensitivity: ++
Fusarium graminearum [3]; 50 μg/ml
  Fungal (hyphal) growth, sensitivity: −
Fusarium graminearum [3]; 100 μg/ml
  Fungal (hyphal) growth, sensitivity: ++
[4]; 50 μg/ml
  Fungal (hyphal) growth, sensitivity: ++
[4]; 100 μg/ml
  Fungal (hyphal) growth, sensitivity: +++
Bacillus subtilis [5]
  PI: PI: 100%
Clavibacter michigense [6]
  PI: PI: 100%
[7]
  PI: PI: 80%
[8]
  CFU: CFU: 0
[9]; 20 μg/ml
  CFU %: 0%
  CFU (colony/ml): 1800 colony/ml
[9]; 50 μg/ml
  CFU %: 0%
  CFU (colony/ml): 0 colony/ml
  CFU determination (colony formation): none formed colony
  CFU: CFU: 0
[9]
  eradication of the bacteria: able to eradicate the bacteria in less than an hour
Candida parapsilosis; 50 μg/ml
  Fungal (hyphal) growth, sensitivity: +++
Candida parapsilosis; 100 μg/ml
  Fungal (hyphal) growth, sensitivity: +++
[10]; listed as NCR55
  PI staining (PI uptake): provoked PI uptake; also recorded: comparable to heat killed bacteria or bacteria treated with polymyxin B
[10]
  PI: PI: 80%
Xanthomonas 2880 [11]
  PI: PI: 100%
[12]
  PI: PI: 85%
Pseudomonas aeruginosa [17]
  PI: PI: 10%
Aspergillus niger; 50 μg/ml
  Fungal (hyphal) growth, sensitivity: ++
Aspergillus niger; 100 μg/ml
  Fungal (hyphal) growth, sensitivity: ++
Bacillus subtilis [13]
  CFU: CFU: 0
Clavibacter michigense [14]
  CFU: CFU: 0
Candida crusei; 50 μg/ml
  Fungal (hyphal) growth, sensitivity: +++
Candida crusei; 100 μg/ml
  Fungal (hyphal) growth, sensitivity: +++
Staphylococcus aureus [16]
  PI: PI: 100%
Pseudomonas aeruginosa [19]; Pseudomonas aeruginosa, untreated 10^7
  CFU: CFU: 10^5

## C[C@@H]1[C@H](O)[C@@H](C)/C=C/C=C/C=C/C=C/C=C/C=C/C=C/[C@H](O[C@@H]2O[C@H](C)[C@@H](O)[C@H](N)[C@@H]2O)C[C@@H]2O[C@](O)(C[C@@H](O)C[C@@H](O)[C@H](O)CC[C@@H](O)C[C@@H](O)CC(=O)O[C@H]1C)C[C@H](O)[C@H]2C(=O)O [AMB, Amfotericin B, reference compound]
Candida albicans; 125 μg/ml
  Fungal (hyphal) growth, sensitivity: +++
Aspergillus flavus; 125 μg/ml
  Fungal (hyphal) growth, sensitivity: +++
Fusarium graminearum [3]; 125 μg/ml
  Fungal (hyphal) growth, sensitivity: ++
[4]; 125 μg/ml
  Fungal (hyphal) growth, sensitivity: +++
Candida parapsilosis; 125 μg/ml
  Fungal (hyphal) growth, sensitivity: +++
Aspergillus niger; 125 μg/ml
  Fungal (hyphal) growth, sensitivity: +++
Candida crusei; 125 μg/ml
  Fungal (hyphal) growth, sensitivity: +++
